Experimental data published in patent US20080124270A1, “Compounds Useful as Metal Chelators” (BRACCO IMAGING S.P.A., priority 2003, published 2008).

Key:
[1] = relaxivity r1 of the gadolinium complex; type: physicochemical; details: for r1: relaxivity of the compound when complexed with gadolinium
Excerpt: (§1) One measure of a complex of a paramagnetic metal and a chelation compound is its signal enhancing effect when used as a contrast agent for MRI. The effectiveness of a paramagnetic complex (e.g., a complex including Gd (III)) in decreasing the relaxation time (T1) of the vicinal water protons is an intrinsic property called relaxivity, r1, which is given by the following equation: […]

[2] = relaxivity r1 of the gadolinium complex in Sucrose 80; type: physicochemical; details: relaxivity of the compound when complexed with gadolinium
Excerpt: as §1

r1 [1] [mM⁻¹ s⁻¹]	r1 in Sucrose 80 [2] [mM⁻¹ s⁻¹]	relaxivity compared to DOTA or DO3A ([1]; when it complexes gadolinium, result in words)	Compound
4.1	64	–	CC(N1CCN(CC(=O)O)CCN(CC(=O)O)CCN(CC(=O)O)CC1)P(=O)(O)O (stereo not shown) [EPDO3A (Na), 10-(1-phosphonoethyl)-1,4,7,10-tetrazacycododecane-1,4,7-triacetic acid]
3.5	35	–	O=C(O)CN1CCN(CC(=O)O)CCN(CC(=O)O)CCN(CC(=O)O)CC1 [DOTA, 1,4,7,10-tetraazacyclododecane-1,4,7,10-tetraacetic acid, reference compound]
4.1	65	surprisingly high relaxivity	O=C(O)CN1CCN(CC(=O)O)CCN(CP(=O)(O)O)CCN(CC(=O)O)CC1 [MPDO3A (Na), 10-Phosphonomethyl-1,4,7,10-tetraazacyclododecane-1,4,7-triacetic acid]
